According to ChEMBL document CHEMBL1130866, “Conodiparines A-D, new bisindoles from Tabernaemontana. Reversal of vincristine-resistance with cultured cells” (Bioorg Med Chem Lett, 1998):
In brackets after ≈: the same amount, converted by molar mass.

Assays:
Assay type in all cases: functional, cell-based
KB [1] = experiment: Compound was evaluated for its cytotoxicity against vincristine-resistant KB/VJ300 human oral epidermoid carcinoma cell lines.
KB [2] = experiment: Compound was evaluated for its cytotoxicity against vincristine-sensitive KB/S human oral epidermoid carcinoma cell lines.
KB [3] = experiment: Compound was evaluated for its cytotoxicity against vincristine-resistant KB/VJ300 human oral epidermoid carcinoma cell lines, with added vincristine 0.25 ug/mL.

Compound	IC50 (KB [1])	IC50 (KB [2])	IC50 (KB [3])
C/C=C1/CN(C)[C@H]2Cc3c([nH]c4ccccc34)[C@@H](c3c(OC)ccc4c5c([nH]c34)[C@]3(C(=O)OC)C[C@@H]4C[C@H]([C@H](C)O)C3N(CC5)C4)C[C@H]1[C@]2(CO)C(=O)OC	15 µg/mL (≈ 20 µM)	20.8 µg/mL (≈ 27.7 µM)	2.45 µg/mL (≈ 3.26 µM)
C/C=C1/CN(C)[C@H]2Cc3c([nH]c4ccccc34)[C@@H](c3c(OC)ccc4c5c([nH]c34)[C@]3(C(=O)OC)C[C@@H]4C[C@H](C(C)=O)C3N(CC5)C4)C[C@H]1[C@]2(CO)C(=O)OC	13.6 µg/mL (≈ 18.2 µM)	18.6 µg/mL (≈ 24.8 µM)	4.6 µg/mL (≈ 6.14 µM)
C/C=C1\CN(C)[C@H]2Cc3c([nH]c4ccccc34)[C@@H](c3cc4c5c([nH]c4cc3OC)[C@]3(C(=O)OC)C[C@@H]4C[C@H]([C@H](C)O)C3N(CC5)C4)C[C@H]1[C@]2(CO)C(=O)OC	13.5 µg/mL (≈ 18 µM)	19.2 µg/mL (≈ 25.6 µM)	1.45 µg/mL (≈ 1.93 µM)
C/C=C1/CN(C)[C@H]2Cc3c([nH]c4ccccc34)[C@@H](c3cc4c5c([nH]c4cc3OC)[C@]3(C(=O)OC)C[C@@H]4C[C@H](C(C)=O)[C@@H]3N(CC5)C4)C[C@H]1[C@]2(CO)C(=O)OC	17 µg/mL (≈ 22.7 µM)	21.4 µg/mL (≈ 28.6 µM)	5.6 µg/mL (≈ 7.48 µM)
CC[C@]1(O)C[C@H]2CN(CCc3c([nH]c4ccccc34)[C@@](C(=O)OC)(c3cc4c(cc3OC)N(C=O)[C@H]3[C@@](O)(C(=O)OC)[C@H](OC(C)=O)[C@]5(CC)C=CCN6CC[C@]43[C@@H]65)C2)C1 [VINCRISTINE]	1.05 µg/mL (≈ 1.27 µM)	0.014 µg/mL (≈ 0.017 µM)	–
